Test results taken from patent US20110152166A1, “METHOD OF MODULATION OF PROTEIN PHOSPHORYLATION-DEPENDENT CONFORMATIONAL TRANSITIONS WITH LOW MOLECULAR WEIGHT COMPOUNDS” (priority 2006, published 2011).

What was measured:
[1] = system: GST-S6K1-T2[Thr412Glu] in HEK 293 cells; experiment: S6K activity and activation loop phosphorylation in transfected HEK 293 cells; format: cell-based, human; conditions: 200 μM, 90 minutes
Procedure: (§1) FIG. 4—Small compounds designed to bind the HM/PIF-pocket of PDK1 can block the PDK1-dependent phosphorylation and activation of substrates that require docking to the HM/PIF-pocket of PDK1. (A) Effect of compound 1 (100 and 200 μM) on PDK1 phosphorylation of its substrate S6K1. The phosphorylation reaction was performed in vitro with [γ^32P]ATP and then separated on SDS-PAGE followed by exposure to phosphorimager. The radioactive band corresponding to phosphorylated GST-56K1-T2[Thr412Glu] (S6K[412E]) is indicated. (B) PDK1 or PDK1[Val127Leu] (PDK1[V127L]) were pre-incubated with GST-[…]N-SGK1 [Ser422Asp] […] (C) The activity of S6K was measured in vitro after glutathione sepharose purification; aliquots of purified proteins were separated on SDS-PAGE and the level of activation loop phosphorylation was visualized by immunoblotting using phospho-specific antibodies that recognize the phosphorylated activation loop, followed by stripping of the membranes and re-probing with anti-GST to verify the presence of equal amounts of protein. (D) Cells overexpressing GST-56K1-T2[Thr412Glu] were treated as in (C) but S6K activity was measured in vitro after immunoprecipitation of the GST-fusion protein with anti-GST antibodies; the level of S6K expression was analysed by western-blotting of crude extracts. […]

PKCζ = molecular target: T1, PKCζ (Homo sapiens, UniProt Q05513); experiment: AGC kinase panel activity assay (MBP); format: biochemical; conditions: for PKCξ (%) activity: 1% DMSO = 100%
T1 construct: deuteron uptake in a full-length AGC kinase; For this analysis we chose PKCζ; made in house; host or cells: HEK293
T1 sequence (Q05513 1-592): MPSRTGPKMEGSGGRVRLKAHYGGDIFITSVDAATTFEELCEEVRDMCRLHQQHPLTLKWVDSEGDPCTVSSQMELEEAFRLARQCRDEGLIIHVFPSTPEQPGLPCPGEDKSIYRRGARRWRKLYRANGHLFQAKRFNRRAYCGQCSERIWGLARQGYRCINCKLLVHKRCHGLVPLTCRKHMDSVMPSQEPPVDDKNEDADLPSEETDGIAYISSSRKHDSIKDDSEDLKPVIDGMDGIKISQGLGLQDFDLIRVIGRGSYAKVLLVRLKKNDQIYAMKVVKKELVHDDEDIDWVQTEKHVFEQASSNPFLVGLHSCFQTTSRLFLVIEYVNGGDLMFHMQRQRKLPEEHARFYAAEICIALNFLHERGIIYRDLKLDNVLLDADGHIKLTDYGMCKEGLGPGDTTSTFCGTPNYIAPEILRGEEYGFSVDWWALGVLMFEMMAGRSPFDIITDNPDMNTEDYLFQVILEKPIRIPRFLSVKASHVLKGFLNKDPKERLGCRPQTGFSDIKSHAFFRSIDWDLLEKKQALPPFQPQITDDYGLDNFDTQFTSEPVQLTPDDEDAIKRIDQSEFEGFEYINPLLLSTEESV
Procedure: Protein kinase activity tests were performed essentially as previously described (Balendran et al., 2000; Biondi et al., 2000; Biondi et al., 2001). Substrates used were either MBP (for PKCζ or polypeptides (Crosstide for PKB, S6K, SGK and PRK2; T308tide for PDK1, and Kemptide for PKA). PKA (Sigma) was measured in the presence of 100 μM cAMP. Alternatively, assays were performed in a 96 well format, aliquots spotted on p81 phosphocellulose papers (Whatmann), washed in 0.01% phosphoric acid, dried, and then exposed and analysed using Phospholmager technology (Storm, Molecular Dynamics). Activity measurements were performed in duplicates with less than 10% difference between duplicate pairs. Experiments were repeated at least twice, although most of the experiments were repeated multiple times, with similar results.
Activity assays for each kinase were performed as described in Materials and Methods in the presence of 1% DMSO (100%). Except PKA, all protein kinases were produced as a GST-fusion. S6K1, PKBα, SGK mutants used were S6K1-T2-[Thr412Glu], PKBa[Ser473Asp] and ΔN-SGK[Ser422Asp].

[2] = system: GST-S6K1-T2[Thr412Ala] in HEK 293 cells; experiment: S6K activation loop phosphorylation in transfected HEK 293 cells; format: cell-based, human; conditions: 200 μM, 90 minutes
Procedure: as §1

effect on PKCζ activity (in words) (PKCζ; 20 μM)	PKCξ (%) activity (PKCζ; 20 μM compound)	PKCξ (%) activity (PKCζ; 200 μM compound)	inhibition of PKCζ (in words) (PKCζ; panel, concentration not given)	Compound	S6K1-T2[Thr412Glu] activity after cell treatment (in words) [1]	phosphorylation at the activation loop of S6K1-T2[Thr412Glu] (in words) [1]	activation loop phosphorylation of S6K1-T2[Thr412Ala] (in words) [2]
no significant effect	94%	21%	inhibited PKCζ	O=C(O)CSC(CC(=O)c1ccc(Cl)cc1)c1ccccc1 (stereo not drawn) [Compound 1]	decrease	decrease in the phosphorylation at the activation loop	significantly decreased
–	104%	86%	–	COC(=O)CSC(CC(=O)c1ccc(Cl)cc1)c1ccccc1 (stereo not drawn) [Compound 2]	–	–	–
